Patent US9346809B2 (LEO PHARMA A/S, priority 2009, dated 2016)
Like-named read-outs stand apart in the source and are kept apart here.

Columns and labels:
Format in all cases: biochemical
[1] = target: T1, JAK1 (aa 850-1154, catalytic domain, GST-tag) (Homo sapiens, UniProt P23458); experiment: JAK kinase assay (HTRF, phosphorylation of TK substrate-biotin), JAK1; settings: ATP at Km (7 μM), read-out: JAK1 kinase inhibitory activity (EC50 indicator)
T1 construct: JAK1 (aa 850-1154) and TYK2 (aa 871-1187) are expressed with an N-terminally fused GST-tag; GST (N); purchased Carna Biosciences, Inc; host or cells: baculovirus expression system
Method in brief: (§1)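 Per reaction, 5 ng JAK1, 0.1 ng JAK2, 0.3 ng JAK3 or 0.8 ng TYK2 (baculovirus-expressed catalytic domains) acted on 1 μM TK substrate-biotin at Km ATP for 20-30 min, RT. Phosphorylation measured by HTRF.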

[2] = target: T2, JAK2 (catalytic domain, His-tag) (Homo sapiens, UniProt O60674); experiment: JAK kinase assay (HTRF, phosphorylation of TK substrate-biotin), JAK2; settings: ATP at Km (4 μM), read-out: JAK2 kinase inhibitory activity (EC50 indicator)
T2 construct: All four purified enzymes contain only the catalytic domain; His (N); purchased Carna Biosciences, Inc; host or cells: baculovirus expression system
Method in brief: as §1

[3] = target: T3, JAK3 (catalytic domain, His-tag) (Homo sapiens, UniProt P52333); experiment: JAK kinase assay (HTRF, phosphorylation of TK substrate-biotin), JAK3; settings: ATP at Km (2 μM), read-out: JAK3 kinase inhibitory activity (EC50 indicator)
T3 construct: All four purified enzymes contain only the catalytic domain; His (N); purchased Carna Biosciences, Inc; host or cells: baculovirus expression system
Method in brief: as §1

[4] = target: T4, TYK2 (aa 871-1187, catalytic domain, GST-tag) (Homo sapiens, UniProt P29597); experiment: JAK kinase assay (HTRF, phosphorylation of TK substrate-biotin), TYK2; settings: ATP at Km (13 μM), read-out: TYK2 kinase inhibitory activity (EC50 indicator)
T4 construct: JAK1 (aa 850-1154) and TYK2 (aa 871-1187) are expressed with an N-terminally fused GST-tag; GST (N); purchased Carna Biosciences, Inc; host or cells: baculovirus expression system
T4 sequence (P29597 871-1187): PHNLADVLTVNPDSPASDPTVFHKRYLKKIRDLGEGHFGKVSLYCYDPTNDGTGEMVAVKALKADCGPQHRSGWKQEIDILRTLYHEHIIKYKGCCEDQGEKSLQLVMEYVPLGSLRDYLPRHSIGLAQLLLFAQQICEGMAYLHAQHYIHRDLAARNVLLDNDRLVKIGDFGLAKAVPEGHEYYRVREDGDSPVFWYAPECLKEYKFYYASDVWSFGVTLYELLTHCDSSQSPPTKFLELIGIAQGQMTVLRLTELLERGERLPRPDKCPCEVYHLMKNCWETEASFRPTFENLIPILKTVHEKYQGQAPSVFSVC
Method in brief: as §1

T3 sequence (P52333 822-1111 limits assumed): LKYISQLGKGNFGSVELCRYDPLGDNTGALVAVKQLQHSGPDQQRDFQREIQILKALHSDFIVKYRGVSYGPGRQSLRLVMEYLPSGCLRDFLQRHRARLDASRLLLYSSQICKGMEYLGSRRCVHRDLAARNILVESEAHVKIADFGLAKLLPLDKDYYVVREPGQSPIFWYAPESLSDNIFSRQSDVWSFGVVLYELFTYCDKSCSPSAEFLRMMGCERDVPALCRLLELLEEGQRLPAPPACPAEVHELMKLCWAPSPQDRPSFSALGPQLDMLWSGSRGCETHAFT
T2 sequence (O60674 849-1124 limits assumed): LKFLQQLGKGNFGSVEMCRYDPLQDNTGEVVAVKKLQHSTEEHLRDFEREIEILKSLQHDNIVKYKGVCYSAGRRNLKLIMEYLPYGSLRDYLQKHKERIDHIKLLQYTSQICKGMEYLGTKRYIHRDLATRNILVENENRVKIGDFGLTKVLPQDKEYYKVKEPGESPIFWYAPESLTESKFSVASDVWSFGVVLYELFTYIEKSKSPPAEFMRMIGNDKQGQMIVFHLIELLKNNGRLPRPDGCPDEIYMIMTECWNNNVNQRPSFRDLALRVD
T1 sequence (P23458 850-1154): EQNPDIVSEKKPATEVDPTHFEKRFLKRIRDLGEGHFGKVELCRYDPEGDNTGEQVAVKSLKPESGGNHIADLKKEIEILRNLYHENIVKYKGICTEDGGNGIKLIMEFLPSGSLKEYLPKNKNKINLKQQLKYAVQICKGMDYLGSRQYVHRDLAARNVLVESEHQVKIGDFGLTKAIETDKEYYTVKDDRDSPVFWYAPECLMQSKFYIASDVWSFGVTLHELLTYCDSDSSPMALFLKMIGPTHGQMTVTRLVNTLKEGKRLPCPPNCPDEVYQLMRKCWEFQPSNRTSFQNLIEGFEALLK

| SMILES | EC50 ([1]; HTRF assay) [µM] | EC50 ([2]; HTRF assay) [µM] | EC50 ([3]; HTRF assay) [µM] | EC50 ([4]; HTRF assay) [µM] | EC50 [1] [µM] | EC50 [2] [µM] | EC50 [3] [µM] | EC50 [4] [µM] |
| --- | --- | --- | --- | --- | --- | --- | --- | --- |
| NS(=O)(=O)c1ccc(CC(=O)N2CCN(c3ncnc4[nH]ccc34)CC23CC3)cc1 [Example 191, 4-{2-Oxo-2-[7-(7H-pyrrolo[2,3-d]pyrimidin-4-yl)-4,7-diaza-spiro[2.5]oct-4-yl]-ethyl}-benzenesulfonamide] |  |  |  |  | < 0.1 | < 0.1 | < 0.1 | > 0.5 |
| N#CC1(C(=O)N2CCN(c3ncnc4[nH]ccc34)CC23CC3)CC1 [Example 165, 1-[7-(7H-Pyrrolo[2,3-d]pyrimidin-4-yl)-4,7-diaza-spiro[2.5]octane-4-carbonyl]-cyclopropanecarbonitrile] |  |  |  |  | < 0.1 | < 0.1 | < 0.1 | 0.1 to 0.5 |
| O=C(c1ccccn1)N1[C@@H]2CC[C@@H]1CN(c1ncnc3[nH]ccc13)C2 [Example 241, Pyridin-2-yl-[3-(7H-pyrrolo[2,3-d]pyrimidin-4-yl)-3,8-diaza-bicyclo[3.2.1]oct-8-yl]-methanone] | < 0.1 | < 0.1 | 0.1 to 0.5 | > 0.5 |  |  |  |  |
| CC1CN(C(=O)Cc2cccc(C#N)c2)C2(CC2)CN1c1ncnc2[nH]ccc12 (centres unmarked) [Example 146, 3-{2-[6-Methyl-7-(7H-pyrrolo[2,3-d]pyrimidin-4-yl)-4,7-diaza-spiro[2.5]oct-4-yl]-2-oxo-ethyl}-benzonitrile] |  |  |  |  | 0.1 to 0.5 | < 0.1 | 0.1 to 0.5 | > 0.5 |
| O=C(c1ccc2sccc2c1)N1CCN(c2ncnc3[nH]ccc23)CC12CC2 [Example 106, Benzo[b]thiophen-5-yl-[7-(7H-pyrrolo[2,3-d]pyrimidin-4-yl)-4,7-diaza-spiro[2.5]oct-4-yl]-methanone] |  |  |  |  | < 0.1 | < 0.1 | 0.1 to 0.5 | 0.1 to 0.5 |
| CS(=O)(=O)c1ccc(CC(=O)N2CCN(c3ncnc4[nH]ccc34)CC23CC3)cc1 [Example 107, 2-(4-Methanesulfonyl-phenyl)-1-[7-(7H-pyrrolo[2,3-d]pyrimidin-4-yl)-4,7-diaza-spiro[2.5]oct-4-yl]-ethanone] |  |  |  |  | < 0.1 | < 0.1 | < 0.1 | > 0.5 |
| COc1cnc2[nH]ccc2c1N1CCN(C(=O)CCCC#N)C2(CC2)C1 [Example 293, 5-[7-(5-Methoxy-1H-pyrrolo[2,3-b]pyridin-4-yl)-4,7-diaza-spiro[2.5]oct-4-yl]-5-oxo-pentanenitrile] | < 0.1 | < 0.1 | < 0.1 | 0.1 to 0.5 |  |  |  |  |
| CN(C)S(=O)(=O)c1ccc(C(=O)N2CCN(c3ncnc4[nH]ccc34)CC23CC3)cc1 [Example 189, N,N-Dimethyl-4-[7-(7H-pyrrolo[2,3-d]pyrimidin-4-yl)-4,7-diaza-spiro[2.5]octane-4-carbonyl]-benzenesulfonamide] |  |  |  |  | < 0.1 | < 0.1 | 0.1 to 0.5 | 0.1 to 0.5 |
| O=C(c1ccc(=O)[nH]c1)N1CCN(c2ncnc3[nH]ccc23)CC12CC2 [Example 56, 5-[7-(7H-Pyrrolo[2,3-d]pyrimidin-4-yl)-4,7-diazaspiro[2.5]octane-4-carbonyl]-1H-pyridin-2-one] |  |  |  |  | < 0.1 | < 0.1 | 0.1 to 0.5 | > 0.5 |
| CC(C)CNC(=S)N1[C@@H]2CC[C@H]1CN(c1ncnc3[nH]ccc13)C2 [Example 10, 3-(7H-Pyrrolo[2,3-d]pyrimidin-4-yl)-3,8-diaza-bicyclo[3.2.1]octane-8-carbothioic acid isobutyl-amide] |  |  |  |  | 0.1 to 0.5 | 0.1 to 0.5 | > 0.5 | > 0.5 |
| CS(=O)(=O)NCCC(=O)N1[C@@H]2CC[C@@H]1CN(c1ncnc3[nH]ccc13)C2 [Example 176, N-{3-Oxo-3-[3-(7H-pyrrolo[2,3-d]pyrimidin-4-yl)-3,8-diaza-bicyclo[3.2.1]oct-8-yl]-propyl}-methanesulfonamide] |  |  |  |  | 0.1 to 0.5 | 0.1 to 0.5 | > 0.5 | > 0.5 |
| COc1cnc2[nH]ccc2c1N1CCN(C(=O)c2cc3cc(C#N)ccc3[nH]2)C2(CC2)C1 [Example 291, 2-[7-(5-Methoxy-1H-pyrrolo[2,3-b]pyridin-4-yl)-4,7-diaza-spiro[2.5]octane-4-carbonyl]-1H-indole-5-carbonitrile] | > 0.5 | > 0.5 | 0.1 to 0.5 | > 0.5 |  |  |  |  |
| CC1CN(C(=O)c2ccc(C#N)cc2)C2(CC2)CN1c1ncnc2[nH]ccc12 (centres unmarked) [Example 148, 4-[6-Methyl-7-(7H-pyrrolo[2,3-d]pyrimidin-4-yl)-4,7-diaza-spiro[2.5]octane-4-carbonyl]-benzonitrile] |  |  |  |  | < 0.1 | < 0.1 | 0.1 to 0.5 | > 0.5 |
| NS(=O)(=O)c1ccc(CC(=O)N2CCN(c3ncnc4[nH]ccc34)CC23CC3)s1 [Example 195, 5-{2-Oxo-2-[7-(7H-pyrrolo[2,3-d]pyrimidin-4-yl)-4,7-diaza-spiro[2.5]oct-4-yl]-ethyl}-thiophene-2-sulfonic acid amide] |  |  |  |  | < 0.1 | < 0.1 | < 0.1 | 0.1 to 0.5 |

Now from value to compound:

| EC50 ([1]; HTRF assay) [µM] | EC50 ([2]; HTRF assay) [µM] | EC50 ([3]; HTRF assay) [µM] | EC50 ([4]; HTRF assay) [µM] | EC50 [1] [µM] | EC50 [2] [µM] | EC50 [3] [µM] | EC50 [4] [µM] | SMILES |
| --- | --- | --- | --- | --- | --- | --- | --- | --- |
| < 0.1 | < 0.1 | < 0.1 | < 0.1 |  |  |  |  | NS(=O)(=O)c1cccc(C(=O)N2CCN(c3ncnc4[nH]ccc34)CC23CC3)c1 [Example 371, 3-[7-(7H-Pyrrolo[2,3-d]pyrimidin-4-yl)-4,7-diaza-spiro[2.5]octane-4-carbonyl]-benzenesulfonamide] |
| < 0.1 | < 0.1 | 0.1 to 0.5 | > 0.5 |  |  |  |  | O=C(c1cnc2ccccc2n1)N1[C@@H]2CC[C@H]1CN(c1ncnc3[nH]ccc13)C2 [Example 345, [3-(7H-Pyrrolo[2,3-d]pyrimidin-4-yl)-3,8-diaza-bicyclo[3.2.1]oct-8-yl]-quinoxalin-2-yl-methanone] |
| 0.1 to 0.5 | < 0.1 | < 0.1 | > 0.5 |  |  |  |  | Cc1c[nH]c2ncnc(N3CCN(C(=O)Cc4ccc(C#N)cc4)C4(CC4)C3)c12 [Example 334, 4-{2-[7-(5-Methyl-7H-pyrrolo[2,3-d]pyrimidin-4-yl)-4,7-diaza-spiro[2.5]oct-4-yl]-2-oxo-ethyl}-benzonitrile] |
| < 0.1 | < 0.1 | < 0.1 | 0.1 to 0.5 |  |  |  |  | CS(=O)(=O)c1ccc(C(=O)N2CCN(c3ncnc4[nH]ccc34)CC23CC3)cc1F [Example 370, (3-Fluoro-4-methanesulfonyl-phenyl)-[7-(7H-pyrrolo[2,3-d]pyrimidin-4-yl)-4,7-diaza-spiro[2.5]oct-4-yl]-methanone] |
| > 0.5 | > 0.5 | > 0.5 | > 0.5 |  |  |  |  | COC(=O)c1cc2c(N3CCN(C(=O)CCCC#N)C4(CC4)C3)ncnc2[nH]1 [Example 339, 4-[4-(4-Cyano-butyryl)-4,7-diaza-spiro[2.5]oct-7-yl]-7H-pyrrolo[2,3-d]pyrimidine-6-carboxylic acid methyl ester] |
| 0.1 to 0.5 | < 0.1 | 0.1 to 0.5 | > 0.5 |  |  |  |  | N#CC1(C(=O)N2CCN(c3nc(N)nc4[nH]ccc34)CC23CC3)CC1 [Example 308, 1-[7-(2-Amino-7H-pyrrolo[2,3-d]pyrimidin-4-yl)-4,7-diaza-spiro[2.5]octane-4-carbonyl]-cyclopropanecarbonitrile] |
| < 0.1 | < 0.1 | 0.1 to 0.5 | 0.1 to 0.5 |  |  |  |  | N#Cc1ccccc1C(=O)N1CCN(c2ncnc3[nH]ccc23)CC12CC2 [Example 299, 2-[7-(7H-Pyrrolo[2,3-d]pyrimidin-4-yl)-4,7-diaza-spiro[2.5]octane-4-carbonyl]-benzonitrile] |
| 0.1 to 0.5 | 0.1 to 0.5 | > 0.5 | > 0.5 |  |  |  |  | N#CCc1cccc(CC(=O)N2[C@@H]3CC[C@@H]2CN(c2ncnc4[nH]ccc24)C3)c1 [Example 346, (3-{2-Oxo-2-[3-(7H-pyrrolo[2,3-d]pyrimidin-4-yl)-3,8-diaza-bicyclo[3.2.1]oct-8-yl]-ethyl}-phenyl)-acetonitrile] |
| > 0.5 | > 0.5 | > 0.5 | > 0.5 |  |  |  |  | N#Cc1ccc(C(=O)N2CCN(c3ncnc4[nH]cc(Cl)c34)CC23CC3)cc1 [Example 315, 4-[7-(5-Chloro-7H-pyrrolo[2,3-d]pyrimidin-4-yl)-4,7-diaza-spiro[2.5]octane-4-carbonyl]-benzonitrile] |
